Laboratory results reported in patent US11858958B2, “Blank liposome with ginsenoside Rg3 or its analog as membrane materials and preparations and uses thereof” (Shanghai Ginsome Pharmatech Co., Ltd., priority 2018, dated 2024).

Columns and labels:
rat C6 glioma cells [1] = assay: In vitro drug efficiency assay, survival rate of glioma cells; type: cell-based; details: 72 h
From the text: (§1) For each concentration group, 4 replicates were set up. The whole experiment was independently repeated 3 times.
The survival rate of rat glioma C6 cells with addition of Rg3 group, Rg3-blank group, PTX group, PTX+Rg3 group, PTX-Cho-Lipo group and PTX-Rg3-Gipo group at various concentrations respectively are listed in Table 11 and FIG. 12.

[2] = system: in-situ glioma model (C6 cells); assay: Survival curve and median survival day; type: in vivo, nude mice
[3] = system: human gastric cancer cells (BGC-823); assay: In vitro cell viability assay; type: cell-based; design: unit not given here
From the text: as §1

rat C6 glioma cells [4] = assay: In vitro drug efficiency assay, survival rate of glioma cells; type: cell-based; details: rat, 72 h
[5] = system: human breast cancer cell line (4T1); assay: In vitro drug efficacy assay, cell survival rate (Rh2/PTX groups)
Procedure: Logarithmically growing tumor cells were collected and resuspended in DMEM complete medium supplemented with 10% fetal bovine serum, 100 U/ml penicillin and 100 μg/ml streptomycin to a final cell density of 4×10^4 cells/ml. Then, 200 μl cell suspension solution was seeded into each well of a 96-well plate (with a concentration of 8×10^3 cells/well) and the plate was cultured in a CO2 cell culture incubator at 37° C. […] The group without replacing DMEM complete medium by anti-cancer drug solution was used as negative control. For each concentration group, 4 replicates were set up. The whole experiment was independently repeated 3 times. The cells were continuously cultured in a CO2 cell culture incubator at 37° C. […] Then discarded the supernatant, added 150 μl DMSO into each well, and shaked the plate for 10 min. The absorbance was measured at 490 nm using a microplate reader (Tecan infinite M 200 TECAN, Switzerland). The cell survival rate is calculated according to the following formula:

CC(=O)O[C@H]1C(=O)[C@@]2(C)[C@H]([C@H](OC(=O)c3ccccc3)[C@]3(O)C[C@H](OC(=O)[C@H](O)[C@@H](NC(=O)c4ccccc4)c4ccccc4)C(C)=C1C3(C)C)[C@]1(OC(C)=O)CO[C@@H]1C[C@@H]2O [PTX, paclitaxel]
Cell Viability (rat C6 glioma cells [1]; 0.0046 μg/ml): 73.2867 | Cell Viability (rat C6 glioma cells [1]; 0.0412 μg/ml): 60.49 | Cell Viability (rat C6 glioma cells [1]; 0.1235 μg/ml): 49.91 | Cell Viability (rat C6 glioma cells [1]; 0.37 μg/ml): 45.98 | Cell Viability (rat C6 glioma cells [1]; 1.111 μg/ml): 43.89 | Cell Viability (rat C6 glioma cells [1]; 3.333 μg/ml): 43.21 | Median survial ([2]; tail vein 10 mg·kg^−1): 27 days | number of survived mice ([2]; tail vein 10 mg·kg^−1, Time 12 d): 10 | number of survived mice ([2]; tail vein 10 mg·kg^−1, Time 14 d): 10 | number of survived mice ([2]; tail vein 10 mg·kg^−1, Time 16 d): 9 | number of survived mice ([2]; tail vein 10 mg·kg^−1, Time 18 d): 8 | number of survived mice ([2]; tail vein 10 mg·kg^−1, Time 20 d): 7 | number of survived mice ([2]; tail vein 10 mg·kg^−1, Time 22 d): 6 | number of survived mice ([2]; tail vein 10 mg·kg^−1, Time 24 d): 6 | number of survived mice ([2]; tail vein 10 mg·kg^−1, Time 26 d): 5 | number of survived mice ([2]; tail vein 10 mg·kg^−1, Time 28 d): 4 | number of survived mice ([2]; tail vein 10 mg·kg^−1, Time 30 d): 4 | number of survived mice ([2]; tail vein 10 mg·kg^−1, Time 32 d): 4 | number of survived mice ([2]; tail vein 10 mg·kg^−1, Time 34 d): 3 | number of survived mice ([2]; tail vein 10 mg·kg^−1, Time 36 d): 1 | number of survived mice ([2]; tail vein 10 mg·kg^−1, Time 38 d): 1 | number of survived mice ([2]; tail vein 10 mg·kg^−1, Time 40 d): 0 | number of survived mice ([2]; tail vein 10 mg·kg^−1, Time 42 d): 0 | number of survived mice ([2]; tail vein 10 mg·kg^−1, Time 44 d): 0 | number of survived mice ([2]; tail vein 10 mg·kg^−1, Time 46 d): 0 | number of survived mice ([2]; tail vein 10 mg·kg^−1, Time 48 d): 0 | number of survived mice ([2]; tail vein 10 mg·kg^−1, Time 50 d): 0 | number of survived mice ([2]; tail vein 10 mg·kg^−1, Time 52 d): 0 | number of survived mice ([2]; tail vein 10 mg·kg^−1, Time 54 d): 0 | number of survived mice ([2]; tail vein 10 mg·kg^−1, Time 56 d): 0 | number of survived mice ([2]; tail vein 10 mg·kg^−1, Time 58 d): 0 | number of survived mice ([2]; tail vein 10 mg·kg^−1, Time 60 d): 0 | number of survived mice ([2]; tail vein 10 mg·kg^−1, Time 62 d): 0 | Cell Viability ([3]; listed as 1 of 9, PTX series C 0.0027-6 μg/mL ascending (8 levels)): 91.9 | Cell Viability ([3]; listed as 2 of 9, PTX series C 0.0027-6 μg/mL ascending (8 levels)): 80.5 | Cell Viability ([3]; listed as 3 of 9, PTX series C 0.0027-6 μg/mL ascending (8 levels)): 60.9 | Cell Viability ([3]; listed as 4 of 9, PTX series C 0.0027-6 μg/mL ascending (8 levels)): 50.3 | Cell Viability ([3]; listed as 5 of 9, PTX series C 0.0027-6 μg/mL ascending (8 levels)): 41.6 | Cell Viability ([3]; listed as 6 of 9, PTX series C 0.0027-6 μg/mL ascending (8 levels)): 42.7 | Cell Viability ([3]; listed as 7 of 9, PTX series C 0.0027-6 μg/mL ascending (8 levels)): 38.0 | Cell Viability ([3]; listed as 8 of 9, PTX series C 0.0027-6 μg/mL ascending (8 levels)): 33.2 | Cell Viability ([3]; listed as 9 of 9, PTX series C 0.0027-6 μg/mL ascending (8 levels)): 32.2 | Cell Viability (rat C6 glioma cells [4]; 0.0005 μg/ml): 100 | Cell Viability (rat C6 glioma cells [4]; 0.0015 μg/ml): 79.49 | Cell Viability (rat C6 glioma cells [4]; 0.0137 μg/ml): 65.36 | Cell Viability (rat C6 glioma cells [4]; 10 μg/ml): 39.59 | Cell Viability ([5]; 4T1, C 0.00091 μM): 106.72 | Cell Viability ([5]; 4T1, C 0.00274 μM): 94.70 | Cell Viability ([5]; 4T1, C 0.00823 μM): 59.19 | Cell Viability ([5]; 4T1, C 0.02469 μM): 55.83 | Cell Viability ([5]; 4T1, C 0.07407 μM): 49.25 | Cell Viability ([5]; 4T1, C 0.22222 μM): 48.48 | Cell Viability ([5]; 4T1, C 0.66667 μM): 48.54 | Cell Viability ([5]; 4T1, C 2.00000 μM): 52.00
